{
  "source": "patent US9879058B2",
  "about": "“Use of compounds that selectively modulate astrocytic release of substances through hemichannels of connexins and pannexins, without influencing gap junctions, for the treatment of psychiatric disorders” (Universidad Andres Bello, priority 2012, dated 2018)",
  "system": "Sprague Dowley rats",
  "experiment": "Auditory fear conditioning with microinfusion into the basolateral amygdala",
  "type": "in vivo, rat",
  "experimental": "A. Animals: All procedures involving animals were in accordance to NIH guidelines and with approval of the bioethical committee of the Universidad Andrés Bello. Sprague Dowley rats (˜60 d old, ˜250 g) were caged individually at 22° C., 12/12 h light/dark cycle. The rats remained in their home box throughout the study, and were removed only briefly for drug microinfusion. B. Drugs: TAT-Cx43L2 ([…] (SEQ ID NO: 1), LifeTein, South Plainfield, N.J., USA, >90% purity) was dissolved in PBS to yield final solutions of 1 mM, 100 μM, 10 μM, 1 μM or 100 nM. Unless stated otherwise, the concentration used for microinfusions of TAT-Cx43L2 was 1 mM. As a control, TAT-Cx43L2^H126K/I130N was used at 1 mM. Gap27 (AnaSpec, Fremont, Calif., USA, >95% purity) and Gap27 scramble were dissolved to a final concentration of 1 mM. For the recovery cocktail, 100 mM glutamate (Sigma), D-serine (200 nM), glutamine (100 mM), ATP (100 μM), lactate (10 mM) and glycine (100 nM) were diluted in sterile saline. C. Apparatus: All behavioral essays were performed in a sound attenuating cubicle. Conditioning and tone testing were conducted in different chambers. For conditioning, rats were placed in a Plexiglas chamber with a metal grid floor (40 cm×40 cm×40 cm). The chamber was dimly illuminated by a red light. For testing, rats were placed in a different Plexiglas chamber without the metal grid (60 cm×40 cm) dimly illuminated by a white light bulb. A video camera was mounted at the top of each chamber to allow digital recording throughout the experiments. D. Surgery and histology: Under ketamine/xylazine anesthesia ([…], respectively), rats were stereotaxically implanted with bilateral 22-gauge stainless steel cannulas aimed 1.0 mm above the basolateral amygdala (3.0 mm posterior to Bregma, 5.3 mm lateral to the midline, and 8.0 mm ventral to the skull surface (Paxinos, G., Watson, C. (1998). The Rat Brain in Stereotaxic Coordinates; Press A, editor. San Diego). The cannulas were fixed with acrylic dental cement and secured by 4 skull screws. A stylus was placed inside the guide cannula to prevent clogging. Rats were given at least 7 days to recover before experimental procedures began.\nIn all experiments, stylus was removed from the guide cannula, and a 28-gauge injection cannula was inserted through the guide cannula, extending 1.0 mm beyond its tip into the BLA. Drugs were infused slowly via the injection cannula, connected by PE20 tubing to Hamilton microsyringes driven by a microinfusion pump. Infusions were of 0.25 μl per hemisphere at a rate of 0.32 μl/min. Following drug infusion, injecting cannulaes were left in place for 10 minutes to allow drug diffusion away from the cannula tip. Cannula placement and maximal diffusion was verified by infusing 0.5 μl of India ink in a group of 5 rats. The maximal diffusion spread observed included only lateral and basal amygdala nuclei. At the end of all experiments, animals were anesthetized as above and perfused intracardially with saline, 4% buffered paraformaldehyde. Brains were extracted and postfixed in 30% sucrose until density equaled that of sucrose. […] Animals with histological lesions beyond the size of the cannula tip and guide cannula diameter were excluded from the analysis.\nE. Behavioral procedures: The conditioning is based on the animal learning that a previously neutral stimulus (a conditioned stimulus, CS; e.g. an innocuous sound) becomes predictive of a stressful stimulus (unconditioned stimulus, US; e.g. footshock). In all of experiments, rats were habituated to handling during the 7 recovery days and also habituated to the training and testing chambers for 3 days, 10 min each day. On the conditioning day, the animals were left in the chamber for 3 minutes before beginning of the training. Each training session consisted of 3 CS-US pairings in 30 s intervals. […]",
  "key": {"[1]": {"conditions": "1 mM into BLA 10 min before training"}},
  "note": "“Also recorded” adds a separate entry of the source. No end group written: not given here.",
  "data": [
    {"sequence": "YGRKKRRQRRRDGANVDMHLKQIEIKKFKYGIEEHGK [TAT-Cx43L2, synthetic cell-permeable peptide corresponding to the Cx43L2 region (aa 119-144) of the cytoplasmic loop of Cx43]", "values": [
      {"measurement": "long term fear memory (freezing to tone) 24 h after training", "setting": "[1]", "result": "strongly impaired fear conditioning memory consolidation; also recorded: complete amnesia"},
      {"measurement": "short term memory (freezing to tone between the 3 pairings during training)", "setting": "[1]", "result": "not affected; also recorded: unaffected short term memory"},
      {"measurement": "concentration dependence of amnesic effect", "setting": "microinfusion into BLA", "result": "concentration dependent"},
      {"measurement": "lower concentration still capable of inducing amnesic effects", "setting": "microinfusion into BLA", "result": 10, "unit": "nM"},
      {"measurement": "memory when injected 6 h after training", "setting": "microinjection into BLA 6 h after learning", "result": "had no effects on memory when injected 6 h after training; also recorded: no memory deficits"},
      {"measurement": "learning capacity on retraining", "setting": "retrained 48 h after the initial conditioning", "result": "recovered their capacity to learn; also recorded: recovered their learning capacity"}
    ]}
  ]
}
